Consider 15 compounds from patent publication US10344026B2, “Compositions and methods of targeting mutant K-ras” (NANTBIO, INC., priority 2017, dated 2019).

SMILES strings stand for the structures. Like-named read-outs stand apart in the source and are kept apart here.

Common to all, as to type: cell-based
The test system of one test is Panc10.05-G12D. Description: Viability assay (CellTiterBlue, 72 hr) Panc10.05. To be noted: Homo sapiens, Panc1005, GI50, CellTiterBlue, read-out: 72 hr Cell Viability Panc10.05 (G12D). As for the experimental part: (§1) Viability assays were performed on exemplary compounds and Table 2 below lists exemplary results for selected compounds tested on K-Ras wild type cell lines (Ishikawa, U87-MG, HCC827, and A375) and various K-Ras mutant cell lines (Panc1-G12D; Panc10.05-G12D; HCT116-G31D). Results are expressed in μM and corresponding structures are shown in FIGS. 2A-2G and Examples 1-152, above.
(§2) Cells are counted and seeded at 1000 cells/36 ul medium/well into 384-well microplates. Cells are returned to 37° C. CO2 incubator for 18 hr. Drug is made as 200× in DMSO and diluted into medium to 10×. To each well is added 4 ul 10× drug, and plates are returned to the incubator. Final assay DMSO concentration is 0.5%. After 72 hr, 8 ul CellTiterBlue (Promega) is added to each well. After 3 hr, fluorescence (Ex550/Em590) is determined on the Victor Plate Reader (Perkin Elmer). Assay range is determined by DMSO control (100% viability) and 100 uM tamoxifen (0% viability). GI50 values are calculated using Graphpad Prism.
A general note: Resazurin is reduced to fluorescent resorufin, in cell work by metabolically active cells.

Test [1] concerns U87-MG (K-Ras wild type cell line). Description: Viability assay (CellTiterBlue, 72 hr) U87-MG. To be noted: Homo sapiens, U-87 MG, GI50, CellTiterBlue. The protocol: as §1, §2
Test [2] has as its system HCC827 (K-Ras wild type cell line). Briefly: Viability assay (CellTiterBlue, 72 hr) HCC827. To be noted: Homo sapiens, GI50, CellTiterBlue. The protocol:
as §1, §2

The subject of the next test is HCT116-G31D. Description: Viability assay (CellTiterBlue, 72 hr) HCT116. As to conditions: Homo sapiens, HCT-116, GI50, CellTiterBlue, read-out: 72 hr Cell Viability HCT116 (G13D). The protocol:
as §1, §2

For test [3], the system named is Ishikawa (K-Ras wild type cell line). Description: Viability assay (CellTiterBlue, 72 hr) Ishikawa. As to conditions: Homo sapiens, GI50, CellTiterBlue. The protocol:
as §1, §2

In a further test the test system is Panc1-G12D. Description: Viability assay (CellTiterBlue, 72 hr) Panc1. To be noted: Homo sapiens, PANC-1, GI50, CellTiterBlue, read-out: 72 hr Cell Viability Panc1 (G12D). The protocol:
as §1, §2

Another test concerns the target T1, K-Ras G12D (Homo sapiens, UniProt P01116, G12D).
T1 construct: expressed in transfected cells; host or cells: 293H cells
Briefly: G-LISA Ras activation, 293H cells transfected with G12D mutant. As to conditions: compound 1 hour. As for the experimental part: 293H cells were seeded in 6-wells at 0.6×10^6 cells per well and transfected next day with 5 μg of Ras wild-type, or G12C, G12D or G12V mutant DNA plasmid vector using transfection reagent Lipofectamine 3000. Next day cells were treated with 3.125-25 μM of Ras compounds for 1 hour. Wild-type transfected cells were subsequently treated with 100 ng/ml EGF for 2 minutes. Cells were washed once in ice-cold PBS, lysed in complete lysis buffer on ice, and processed by G-LISA according to Cytoskeleton protocol.

Setting [4] is: Ishikawa cells (K-Ras wild-type).

T1 sequence (P01116 whole entry G12D): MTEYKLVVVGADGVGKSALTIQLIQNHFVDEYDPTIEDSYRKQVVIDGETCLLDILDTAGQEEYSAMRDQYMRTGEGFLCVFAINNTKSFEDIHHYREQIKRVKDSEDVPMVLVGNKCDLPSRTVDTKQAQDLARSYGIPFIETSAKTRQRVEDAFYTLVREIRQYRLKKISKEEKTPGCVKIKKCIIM

Regarding `Cc1nc(C)c(C(=O)Nc2nc(-c3ccc4c(c3)CCC(=O)N4Cc3ccc4ccccc4c3)cs2)o1` [Compound 80, 2,4-dimethyl-N-(4-(1-(naphthalen-2-ylmethyl)-2-oxo-1,2,3,4-tetrahydroquinolin-6-yl)thiazol-2-yl)oxazole-5-carboxamide], the IC50 is 9 µM in the test on Panc10.05-G12D (Panc10.05 K-Ras G12D); 4 µM in test [1] (U87-MG K-Ras wild-type); 7 µM in test [2] (HCC827 K-Ras wild-type); 9 µM with HCT116-G31D (HCT116 K-Ras G13D); over 25 µM in test [3] (Ishikawa K-Ras wild-type); over 25 µM in the test with Panc1-G12D (Panc1 K-Ras G12D).

`Cc1nc(C)c(C(=O)Nc2nc(-c3ccc4c(c3)CCC(=O)N4Cc3ccc4c(c3)OCO4)cs2)o1` [Compound 74, N-(4-(1-(benzo[d][1,3]dioxol-5-ylmethyl)-2-oxo-1,2,3,4-tetrahydroquinolin-6-yl)thiazol-2-yl)-2,4-dimethyloxazole-5-carboxamide]: the IC50 in the test with Panc10.05-G12D (Panc10.05 K-Ras G12D) was 2 µM; in test [1] (U87-MG K-Ras wild-type) it was 6 µM; in test [2] (HCC827 K-Ras wild-type), over 25 µM; in the test with HCT116-G31D (HCT116 K-Ras G13D), over 25 µM; in test [3] (Ishikawa K-Ras wild-type), 16 µM; on K-Ras G12D it was 22.4 µM. Also, in the test on Panc1-G12D (Panc1 K-Ras G12D), the IC50 worked out at 11 µM.

For `O=C1CCc2cc(-c3csc(NC(=O)c4cc(Br)cs4)n3)ccc2N1` [Compound 149, 4-bromo-N-(4-(2-oxo-1,2,3,4-tetrahydroquinolin-6-yl)thiazol-2-yl)thiophene-2-carboxamide], the IC50 is 22 µM in the test on Panc10.05-G12D (Panc10.05 cells (K-Ras G12D)); 11 µM in test [1] (U87-MG cells (K-Ras wild-type)); 22 µM in test [2] (HCC827 cells (K-Ras wild-type)); 28 µM in the test on HCT116-G31D (HCT116 cells (K-Ras G13D)); 7 µM in test [3] (setting [4]); over 25 µM with Panc1-G12D (Panc1 cells (K-Ras G12D)).

Turning to `Cc1nc(C)c(C(=O)Nc2nc(-c3ccc4c(c3)CCC(=O)N4CC3CCCNC3)cs2)o1` (stereo not drawn) [Compound 88], the IC50 in the test on Panc10.05-G12D (Panc10.05 K-Ras G12D) is 16 µM; in test [1] (U87-MG K-Ras wild-type), 19 µM; in test [2] (HCC827 K-Ras wild-type) it was 15 µM; in the test on HCT116-G31D (HCT116 K-Ras G13D) it was 17 µM; in the test with Panc1-G12D (Panc1 K-Ras G12D) it was over 25 µM.

Take `Cc1nc(C)c(C(=O)Nc2nc(-c3ccc4c(c3)CCC(=O)N4Cc3cccc([N+](=O)[O-])c3)cs2)o1` [Compound 87, 2,4-dimethyl-N-(4-(1-(3-nitrobenzyl)-2-oxo-1,2,3,4-tetrahydroquinolin-6-yl)thiazol-2-yl)oxazole-5-carboxamide]: the IC50 in the test on Panc10.05-G12D (Panc10.05 K-Ras G12D) is 17 µM; in test [1] (U87-MG K-Ras wild-type), over 25 µM; in test [2] (HCC827 K-Ras wild-type) it was over 25 µM; in the test on HCT116-G31D (HCT116 K-Ras G13D), over 25 µM; in the test on Panc1-G12D (Panc1 K-Ras G12D), 17 µM.

Turning to `COc1cc(Cl)cc(CN2C(=O)CCc3cc(-c4csc(NC(=O)c5oc(C)nc5C)n4)ccc32)c1` [Compound 78], the IC50 (in the test with Panc10.05-G12D (Panc10.05 K-Ras G12D); in test [1] (U87-MG K-Ras wild-type); in test [2] (HCC827 K-Ras wild-type); in the test on HCT116-G31D (HCT116 K-Ras G13D); in test [3] (Ishikawa K-Ras wild-type); in the test with Panc1-G12D (Panc1 K-Ras G12D)) was over 25 µM in each case.

For the compound `Cc1cc(C)c(C(=O)Nc2nc(-c3ccc4c(c3)CCC(=O)N4)cs2)cn1` [Compound 18], the IC50 was 3 µM in the test on Panc10.05-G12D (Panc10.05 K-Ras G12D); 11 µM in test [1] (U87-MG K-Ras wild-type); over 25 µM in test [2] (HCC827 K-Ras wild-type); 26 µM in the test on HCT116-G31D (HCT116 K-Ras G13D); 2 µM in test [3] (Ishikawa K-Ras wild-type); 5 µM in the test with Panc1-G12D (Panc1 K-Ras G12D).

For the compound `Cc1nc(C2CCCCC2)oc1C(=O)Nc1nc(-c2ccc3c(c2)CCC(=O)N3)cs1` [Compound 11, 2-cyclohexyl-4-methyl-N-(4-(2-oxo-1,2,3,4-tetrahydroquinolin-6-yl)thiazol-2-yl)oxazole-5-carboxamide], the IC50 in the test on Panc10.05-G12D (Panc10.05 K-Ras G12D) was 16 µM; in test [1] (U87-MG K-Ras wild-type), over 25 µM; in test [2] (HCC827 K-Ras wild-type) it was 21 µM; in the test on HCT116-G31D (HCT116 K-Ras G13D), 16 µM; in the test with Panc1-G12D (Panc1 K-Ras G12D) it was over 25 µM.

Turning to `COc1cc(CN2C(=O)CCc3cc(-c4csc(NC(=O)c5oc(C)nc5C)n4)ccc32)cc(OC)c1` [Compound 77, N-(4-(1-(3,5-dimethoxybenzyl)-2-oxo-1,2,3,4-tetrahydroquinolin-6-yl)thiazol-2-yl)-2,4-dimethyloxazole-5-carboxamide], the IC50 (in the test on Panc10.05-G12D (Panc10.05 K-Ras G12D); in test [1] (U87-MG K-Ras wild-type); in test [2] (HCC827 K-Ras wild-type); with HCT116-G31D (HCT116 K-Ras G13D); in test [3] (Ishikawa K-Ras wild-type); in the test with Panc1-G12D (Panc1 K-Ras G12D)) was over 25 µM in each case.

`Cn1nccc1-c1csc(C(=O)Nc2nc(-c3ccc4c(c3)CCC(=O)N4)cs2)c1` [Compound 151, 4-(1-methyl-1H-pyrazol-5-yl)-N-(4-(2-oxo-1,2,3,4-tetrahydroquinolin-6-yl)thiazol-2-yl)thiophene-2-carboxamide]: the IC50 turned out to be 1.4 µM with Panc10.05-G12D (Panc10.05 cells (K-Ras G12D)); 5 µM in test [1] (U87-MG cells (K-Ras wild-type)); 8 µM in test [2] (HCC827 cells (K-Ras wild-type)); 2 µM in the test on HCT116-G31D (HCT116 cells (K-Ras G13D)); 1.3 µM in test [3] (setting [4]); 23.5 µM against K-Ras G12D. Further, the IC50 in the test with Panc1-G12D (Panc1 cells (K-Ras G12D)) was determined as 4 µM.

In the case of `O=C1CCc2cc(-c3csc(NC(=O)c4ccc(Cl)s4)n3)ccc2N1` [Compound 150, 5-chloro-N-(4-(2-oxo-1,2,3,4-tetrahydroquinolin-6-yl)thiazol-2-yl)thiophene-2-carboxamide], the IC50 with Panc10.05-G12D (Panc10.05 cells (K-Ras G12D)) was 20 µM; in test [1] (U87-MG cells (K-Ras wild-type)), 8 µM; in test [2] (HCC827 cells (K-Ras wild-type)) it was 20 µM; with HCT116-G31D (HCT116 cells (K-Ras G13D)) it was 27 µM; in test [3] (setting [4]), 5 µM; against K-Ras G12D, over 25 µM. Moreover, the IC50 with Panc1-G12D (Panc1 cells (K-Ras G12D)) is 27 µM.

On to `Cc1nc(C)c(C(=O)Nc2nc(-c3ccc4c(c3)CCC(=O)N4Cc3cccc4ccccc34)cs2)o1` [Compound 79, 2,4-dimethyl-N-(4-(1-(naphthalen-1-ylmethyl)-2-oxo-1,2,3,4-tetrahydroquinolin-6-yl)thiazol-2-yl)oxazole-5-carboxamide], for which the IC50 (in the test with Panc10.05-G12D (Panc10.05 K-Ras G12D); in test [1] (U87-MG K-Ras wild-type); in test [2] (HCC827 K-Ras wild-type); in the test with HCT116-G31D (HCT116 K-Ras G13D); in test [3] (Ishikawa K-Ras wild-type); in the test on Panc1-G12D (Panc1 K-Ras G12D)) was over 25 µM in each case.

Regarding `Cc1nc(C)c(C(=O)Nc2nc(-c3ccc4c(c3)CCC(=O)N4CC(O)CO)cs2)o1` (stereo not drawn) [Compound 89, N-(4-(1-(2,3-dihydroxypropyl)-2-oxo-1,2,3,4-tetrahydroquinolin-6-yl)thiazol-2-yl)-2,4-dimethyloxazole-5-carboxamide], the IC50 with Panc10.05-G12D (Panc10.05 K-Ras G12D) is 12 µM; in test [1] (U87-MG K-Ras wild-type), 13 µM; in test [2] (HCC827 K-Ras wild-type), 12 µM; in the test with HCT116-G31D (HCT116 K-Ras G13D), 11 µM; in the test with Panc1-G12D (Panc1 K-Ras G12D), over 25 µM.

`Cc1nc(-c2ccc3c(c2)OCC3)sc1C(=O)Nc1nc(-c2ccc3c(c2)CCC(=O)N3)cs1` [Compound 19, 2-(2,3-dihydrobenzofuran-6-yl)-4-methyl-N-(4-(2-oxo-1,2,3,4-tetrahydroquinolin-6-yl)thiazol-2-yl)thiazole-5-carboxamide]: the IC50 in the test with Panc10.05-G12D (Panc10.05 K-Ras G12D) was determined as 2 µM; in test [1] (U87-MG K-Ras wild-type), 4 µM; in test [2] (HCC827 K-Ras wild-type), 8 µM; in the test on HCT116-G31D (HCT116 K-Ras G13D) it was 5 µM; in test [3] (Ishikawa K-Ras wild-type), 2 µM; in the test on Panc1-G12D (Panc1 K-Ras G12D) it was 6 µM.

Take `Cc1nc(C)c(C(=O)Nc2nc(-c3ccc4c(c3)CCC(=O)N4Cc3cccc4cnccc34)cs2)o1` [Compound 83, N-(4-(1-(isoquinolin-5-ylmethyl)-2-oxo-1,2,3,4-tetrahydroquinolin-6-yl)thiazol-2-yl)-2,4-dimethyloxazole-5-carboxamide]: the IC50 in the test with Panc10.05-G12D (Panc10.05 K-Ras G12D) was 4 µM; in test [1] (U87-MG K-Ras wild-type), 3 µM; in test [2] (HCC827 K-Ras wild-type), 6 µM; with HCT116-G31D (HCT116 K-Ras G13D), 4 µM; in test [3] (Ishikawa K-Ras wild-type) it was 2 µM; against K-Ras G12D it was over 25 µM. The IC50 in the test with Panc1-G12D (Panc1 K-Ras G12D) is 12 µM.
